Assay results reported in patent US20190375708A1 (VenatoRx Pharmaceuticals, Inc., priority 2018, published 2019).

Key:
[1] = test system: HBV replication in HepAD38 cells; experiment: Anti-HBV replication assay in HepAD38 cells (QPCR of extracellular HBV DNA); type: cell-based, HBV (genotype D, serotype ayw); conditions: Hepatitis B virus, 168 h, 7 days incubation, extracellular HBV DNA by QPCR, read-out: Anti-HBV EC50
How it was run: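 EC50 values reflect 50% reduction of extracellular HBV DNA, measured by QPCR after 7-day treatment of tetracycline-deprived HepAD38 cells with compound […].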

[2] = In vitro cytotoxicity assay (MTT cell viability) in HepG2 cells; type: cell-based, human; conditions: human
How it was run: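 HepG2 seeded overnight, then 7-day compound exposure (30 μM–1.0 nM, half-log steps), 37 °C. MTT 3-4 h, DMSO solubilization, A492. % of vehicle → CC50, 4-PL fit.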

Structure (SMILES): Cc1c(C(=O)Nc2ccc(F)c(F)c2)c(C)n(C)c1C(=O)C(=O)NC1CCC(F)(F)CC1 [Example 298, 5-(2-((4,4-difluorocyclohexyl)amino)-2-oxoacetyl)-N-(3,4-difluorophenyl)-1,2,4-trimethyl-1H-pyrrole-3-carboxamide]
- EC50 [1]: < 50 nM
- CC50 at 7 days [2]: > 30 µM

Structure (SMILES): Cc1cc(NC(=O)c2c(C)c(C(=O)C(=O)NCC(=O)N3CCOCC3)n(C)c2C)ccc1F [Example 299, N-(4-fluoro-3-methylphenyl)-1,2,4-trimethyl-5-(2-((2-morpholino-2-oxoethyl)amino)-2-oxoacetyl)-1H-pyrrole-3-carboxamide]
- EC50 [1]: 50 to 499 nM
- CC50 at 7 days [2]: > 30 µM

Structure (SMILES): Cc1cc(NC(=O)c2c(C)c(C(=O)C(=O)NCCN3CCNC(=O)C3)n(C)c2C)ccc1F [Example 300, N-(4-fluoro-3-methylphenyl)-1,2,4-trimethyl-5-(2-oxo-2-((2-(3-oxopiperazin-1-yl)ethyl)amino)acetyl)-1H-pyrrole-3-carboxamide]
- EC50 [1]: 50 to 499 nM
- CC50 at 7 days [2]: > 30 µM

Structure (SMILES): Cc1cc(NC(=O)c2c(C)c(C(=O)C(=O)NCCCN3CCOCC3)n(C)c2C)ccc1F [Example 301, N-(4-fluoro-3-methylphenyl)-1,2,4-trimethyl-5-(2-((3-morpholinopropyl)amino)-2-oxoacetyl)-1H-pyrrole-3-carboxamide]
- EC50 [1]: < 50 nM
- CC50 at 7 days [2]: > 30 µM

Structure (SMILES): Cc1cc(NC(=O)c2c(C)c(C(=O)C(=O)N[C@H]3C[C@@H](O)C3(C)C)n(C)c2C)ccc1F [Example 302, N-(4-fluoro-3-methylphenyl)-5-(2-(((1S,3R)-3-hydroxy-2,2-dimethylcyclobutyl)amino)-2-oxoacetyl)-1,2,4-trimethyl-1H-pyrrole-3-carboxamide]
- EC50 [1]: < 50 nM
- CC50 at 7 days [2]: > 30 µM

Structure (SMILES): Cc1cc(NC(=O)c2c(C)c(C(=O)C(=O)NC3(C(=O)NC(C)C)CCOCC3)n(C)c2C)ccc1F [Example 303, N-(4-fluoro-3-methylphenyl)-5-(2-((4-(isopropylcarbamoyl)tetrahydro-2H-pyran-4-yl)amino)-2-oxoacetyl)-1,2,4-trimethyl-1H-pyrrole-3-carboxamide]
- EC50 [1]: < 50 nM
- CC50 at 7 days [2]: > 30 µM

Structure (SMILES): Cc1cc(NC(=O)C(=O)c2c(C)c(C(=O)Nc3ccc(F)c(C)c3)c(C)n2C)on1 [Example 304, N-(4-fluoro-3-methylphenyl)-1,2,4-trimethyl-5-(2-((3-methylisoxazol-5-yl)amino)-2-oxoacetyl)-1H-pyrrole-3-carboxamide]
- EC50 [1]: < 50 nM
- CC50 at 7 days [2]: 5 to 30 µM

Structure (SMILES): Cc1nnc(NC(=O)C(=O)c2c(C)c(C(=O)Nc3ccc(F)c(C)c3)c(C)n2C)o1 [Example 305, N-(4-fluoro-3-methylphenyl)-1,2,4-trimethyl-5-(2-((5-methyl-1,3,4-oxadiazol-2-yl)amino)-2-oxoacetyl)-1H-pyrrole-3-carboxamide]
- EC50 [1]: > 1000 nM
- CC50 at 7 days [2]: > 30 µM

Structure (SMILES): Cc1cc(NC(=O)c2c(C)c(C(=O)C(=O)Nc3ccn(C)n3)n(C)c2C)ccc1F [Example 306, N-(4-fluoro-3-methylphenyl)-1,2,4-trimethyl-5-(2-((1-methyl-1H-pyrazol-3-yl)amino)-2-oxoacetyl)-1H-pyrrole-3-carboxamide]
- EC50 [1]: < 50 nM
- CC50 at 7 days [2]: > 30 µM

Structure (SMILES): Cc1cc(NC(=O)c2c(C)c(C(=O)C(=O)Nc3ccn(CCO)n3)n(C)c2C)ccc1F [Example 307, N-(4-fluoro-3-methylphenyl)-5-(2-((1-(2-hydroxyethyl)-1H-pyrazol-3-yl)amino)-2-oxoacetyl)-1,2,4-trimethyl-1H-pyrrole-3-carboxamide]
- EC50 [1]: < 50 nM
- CC50 at 7 days [2]: > 30 µM

Structure (SMILES): Cc1cc(NC(=O)c2c(C)c(C(=O)C(=O)Nc3nc(CO)cs3)n(C)c2C)ccc1F [Example 308, N-(4-fluoro-3-methylphenyl)-5-(2-((4-(hydroxymethyl)thiazol-2-yl)amino)-2-oxoacetyl)-1,2,4-trimethyl-1H-pyrrole-3-carboxamide]
- EC50 [1]: 500 to 1000 nM
- CC50 at 7 days [2]: > 30 µM

Structure (SMILES): Cc1c(C(=O)Nc2ccc(F)c(Cl)c2)c(C)n(C)c1C(=O)C(=O)Nc1ccccn1 [Example 309, N-(3-chloro-4-fluorophenyl)-1,2,4-trimethyl-5-(2-oxo-2-(pyridin-2-ylamino)acetyl)-1H-pyrrole-3-carboxamide]
- EC50 [1]: 50 to 499 nM
- CC50 at 7 days [2]: > 30 µM

Structure (SMILES): Cc1c(C(=O)Nc2ccc(F)c(Cl)c2)c(C)n(C)c1C(=O)C(=O)Nc1cccnc1 [Example 311, N-(3-chloro-4-fluorophenyl)-1,2,4-trimethyl-5-(22-oxo-2-(pyridin-3-ylamino)acetyl)-1H-pyrrole-3-carboxamide]
- EC50 [1]: < 50 nM
- CC50 at 7 days [2]: > 30 µM

Structure (SMILES): Cc1c(C(=O)Nc2ccc(F)c(Cl)c2)c(C)n(C)c1C(=O)C(=O)Nc1ccc(F)nc1 [Example 312, N-(3-chloro-4-fluorophenyl)-5-(2-((6-fluoropyridin-3-yl)amino)-2-oxoacetyl)-1,2,4-trimethyl-1H-pyrrole-3-carboxamide]
- EC50 [1]: < 50 nM
- CC50 at 7 days [2]: 5 to 30 µM

Structure (SMILES): Cc1c(C(=O)Nc2ccc(F)c(Cl)c2)c(C)n(C)c1C(=O)C(=O)Nc1ccc(F)c(F)c1 [Example 313]
- EC50 [1]: < 50 nM
- CC50 at 7 days [2]: 5 to 30 µM

Structure (SMILES): Cc1c(C(=O)Nc2ccc(F)c(Cl)c2)c(C)n(C)c1C(=O)C(=O)NC1CCC(F)(F)CC1 [Example 314, N-(3-chloro-4-fluorophenyl)-5-(2-((4,4-difluorocyclohexyl)amino)-2-oxoacetyl)-1,2,4-trimethyl-1H-pyrrole-3-carboxamide]
- EC50 [1]: < 50 nM
- CC50 at 7 days [2]: 5 to 30 µM

Structure (SMILES): Cc1csc(NC(=O)C(=O)c2c(C)c(C(=O)Nc3ccc(F)c(F)c3)c(C)n2C)n1 [Example 315, N-(3,4-difluorophenyl)-1,2,4-trimethyl-5-(2-((4-methylthiazol-2-yl)amino)-2-oxoacetyl)-1H-pyrrole-3-carboxamide]
- EC50 [1]: < 50 nM
- CC50 at 7 days [2]: > 30 µM

Structure (SMILES): Cc1csc(NC(=O)C(=O)c2c(C)c(C(=O)Nc3ccc(F)c(Cl)c3)c(C)n2C)n1 [Example 316, N-(3-chloro-4-fluorophenyl)-1,2,4-trimethyl-5-(2-((4-methylthiazol-2-yl)amino)-2-oxoacetyl)-1H-pyrrole-3-carboxamide]
- EC50 [1]: < 50 nM
- CC50 at 7 days [2]: > 30 µM

Structure (SMILES): Cc1cc(NC(=O)c2c(C)c(C(=O)C(=O)Nc3ncc(C(F)(F)F)s3)n(C)c2C)ccc1F [Example 317, N-(4-fluoro-3-methylphenyl)-1,2,4-trimethyl-5-(2-oxo-2-((5-(trifluoromethyl)thiazol-2-yl)amino)acetyl)-1H-pyrrole-3-carboxamide]
- EC50 [1]: > 1000 nM
- CC50 at 7 days [2]: 5 to 30 µM

Structure (SMILES): Cc1c(C(=O)Nc2cc(F)c(F)c(F)c2)c(C)n(C)c1C(=O)C(=O)Nc1ccccn1 [Example 318, 1,2,4-trimethyl-5-(2-oxo-2-(pyridin-2-ylamino)acetyl)-N-(3,4,5-trifluorophenyl)-1H-pyrrole-3-carboxamide]
- EC50 [1]: 50 to 499 nM
- CC50 at 7 days [2]: > 30 µM

Structure (SMILES): Cc1c(C(=O)Nc2cc(F)c(F)c(F)c2)c(C)n(C)c1C(=O)C(=O)Nc1ccc(F)cn1 [Example 319, 5-(2-((5-fluoropyridin-2-yl)amino)-2-oxoacetyl)-1,2,4-trimethyl-N-(3,4,5-trifluorophenyl)-1H-pyrrole-3-carboxamide]
- EC50 [1]: < 50 nM
- CC50 at 7 days [2]: 5 to 30 µM

Structure (SMILES): Cc1c(C(=O)Nc2cc(F)c(F)c(F)c2)c(C)n(C)c1C(=O)C(=O)Nc1cccnc1 [Example 320, 1,2,4-trimethyl-5-(2-oxo-2-(pyridin-3-ylamino)acetyl)-N-(3,4,5-trifluorophenyl)-1H-pyrrole-3-carboxamide]
- EC50 [1]: < 50 nM
- CC50 at 7 days [2]: > 30 µM

Structure (SMILES): Cc1c(C(=O)Nc2cc(F)c(F)c(F)c2)c(C)n(C)c1C(=O)C(=O)Nc1ccc(F)nc1 [Example 321, 5-(2-((6-fluoropyridin-3-yl)amino)-2-oxoacetyl)-1,2,4-trimethyl-N-(3,4,5-trifluorophenyl)-1H-pyrrole-3-carboxamide]
- EC50 [1]: < 50 nM
- CC50 at 7 days [2]: 5 to 30 µM

Structure (SMILES): Cc1c(C(=O)Nc2cc(F)c(F)c(F)c2)c(C)n(C)c1C(=O)C(=O)Nc1ccc(F)c(F)c1 [Example 322, 5-(2-((3,4-difluorophenyl)amino)-2-oxoacetyl)-1,2,4-trimethyl-N-(3,4,5-trifluorophenyl)-1H-pyrrole-3-carboxamide]
- EC50 [1]: < 50 nM
- CC50 at 7 days [2]: 5 to 30 µM

Structure (SMILES): Cc1csc(NC(=O)C(=O)c2c(C)c(C(=O)Nc3cc(F)c(F)c(F)c3)c(C)n2C)n1 [Example 323, 1,2,4-trimethyl-5-(2-((4-methylthiazol-2-yl)amino)-2-oxoacetyl)-N-(3,4,5-trifluorophenyl)-1H-pyrrole-3-carboxamide]
- EC50 [1]: < 50 nM
- CC50 at 7 days [2]: 5 to 30 µM

Structure (SMILES): Cc1c(C(=O)Nc2cc(F)c(F)c(F)c2)c(C)n(C)c1C(=O)C(=O)NC1CCC(F)(F)CC1 [Example 324, 5-(2-((4,4-difluorocyclohexyl)amino)-2-oxoacetyl)-1,2,4-trimethyl-N-(3,4,5-trifluorophenyl)-1H-pyrrole-3-carboxamide]
- EC50 [1]: < 50 nM
- CC50 at 7 days [2]: 5 to 30 µM

Structure (SMILES): Cc1c(C(=O)Nc2ccc(F)nc2)c(C)n(C)c1C(=O)C(=O)NC1(C)CCOCC1 [Example 325, N-(6-fluoropyridin-3-yl)-1,2,4-trimethyl-5-(2-((4-methyltetrahydro-2H-pyran-4-yl)amino)-2-oxoacetyl)-1H-pyrrole-3-carboxamide]
- EC50 [1]: 50 to 499 nM
- CC50 at 7 days [2]: > 30 µM

Structure (SMILES): Cc1c(C(=O)Nc2ccnc(Cl)c2)c(C)n(C)c1C(=O)C(=O)NC1(C)CCOCC1 [Example 326, N-(2-chloropyridin-4-yl)-1,2,4-trimethyl-5-(2-((4-methyltetrahydro-2H-pyran-4-yl)amino)-2-oxoacetyl)-1H-pyrrole-3-carboxamide]
- EC50 [1]: < 50 nM
- CC50 at 7 days [2]: > 30 µM
